In PubChem BioAssay (NCI):
Values joined by “and” are separate entries in the source; they are usually repeats but may differ in a detail not shown here. Identical values can stand only once.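 Interpolation was linear, between the two tested concentrations surrounding the appropriate level; five concentrations were tested over 48 hours in 96-well plates. GI50 marks 50% less growth. The concentration for full growth arrest is given as TGI.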

Key:
Assay in all cases: NCI-60 cell line screen, 48 h
EKVX NSCLC = test system: EKVX NSCLC
IGROV1 ovarian = test system: IGROV1 ovarian
NCI-H226 lung = test system: NCI-H226 lung
NCI-H23 lung = test system: NCI-H23 lung
SK-MEL-5 melanoma = test system: SK-MEL-5 melanoma
SNB-19 CNS = test system: SNB-19 CNS
T-47D breast = test system: T-47D breast
DMS 273 small cell lung = test system: DMS 273 small cell lung
HOP-18 NSCLC = test system: HOP-18 NSCLC
LXFL 529 NSCLC = test system: LXFL 529 NSCLC
XF 498 CNS = test system: XF 498 CNS
RXF-631 renal = test system: RXF-631 renal

## COc1ccc(N2C(C)=C(C#N)C34C(=O)N(c5ccccc5)C(=O)C3=C(O)C=CC24O)cc1 (stereo not drawn)
EKVX NSCLC
  GI50: 22.3 µM
  TGI: 85.8 µM
IGROV1 ovarian
  GI50: 2.11 µM
  TGI: 21.1 µM
NCI-H226 lung
  GI50: 13.5 µM
  TGI: 35.1 µM
NCI-H23 lung
  GI50: 8.86 µM
  TGI: 58 µM
SK-MEL-5 melanoma
  GI50: 11.4 µM
  TGI: 28.2 µM
SNB-19 CNS
  GI50: 18.4 µM
  TGI: 50.2 µM
T-47D breast
  GI50: 13 µM
  TGI: 33.8 µM

## CCCCCCCCCc1cc(=O)c2ccc(OCc3ccccc3)cc2o1
DMS 273 small cell lung
  TGI: > 100 µM
EKVX NSCLC
  TGI: > 100 µM
HOP-18 NSCLC
  TGI: > 100 µM
IGROV1 ovarian
  TGI: > 100 µM
LXFL 529 NSCLC
  TGI: > 100 µM
NCI-H226 lung
  TGI: > 100 µM
NCI-H23 lung
  TGI: > 100 µM
SK-MEL-5 melanoma
  TGI: > 100 µM
SNB-19 CNS
  TGI: > 100 µM
XF 498 CNS
  TGI: > 100 µM

## COc1nc(NC2OCC(OC(C)=O)C(OC(C)=O)C2OC(C)=O)c(N=CC=Nc2c(NC3OCC(OC(C)=O)C(OC(C)=O)C3OC(C)=O)nc(OC)n(C)c2=O)c(=O)n1C (stereo not drawn)
DMS 273 small cell lung
  TGI: > 100 µM
EKVX NSCLC
  TGI: > 100 µM
HOP-18 NSCLC
  TGI: > 100 µM
IGROV1 ovarian
  TGI: > 100 µM
LXFL 529 NSCLC
  TGI: > 100 µM
NCI-H23 lung
  TGI: > 100 µM
SK-MEL-5 melanoma
  TGI: > 100 µM
SNB-19 CNS
  TGI: > 100 µM
XF 498 CNS
  TGI: 95.9 µM

## COC(=O)CCC(NC(=S)N/N=C(\C)c1nccs1)C(=O)OC (stereo not drawn)
EKVX NSCLC
  TGI: > 100 µM
HOP-18 NSCLC
  TGI: > 100 µM
IGROV1 ovarian
  TGI: > 100 µM
LXFL 529 NSCLC
  TGI: > 100 µM
NCI-H226 lung
  TGI: > 100 µM
NCI-H23 lung
  TGI: > 100 µM
RXF-631 renal
  TGI: > 100 µM
SK-MEL-5 melanoma
  TGI: > 100 µM
SNB-19 CNS
  TGI: > 100 µM
XF 498 CNS
  TGI: > 100 µM

## CN(CCCN)CCCNc1nc2ccccc2c2[nH]c3ccccc3c12
EKVX NSCLC
  GI50: 1.44 µM
  TGI: 8.2 µM
IGROV1 ovarian
  GI50: 0.329 µM
  TGI: 1.21 µM
NCI-H226 lung
  GI50: 0.297 µM
  TGI: 0.997 µM
NCI-H23 lung
  GI50: 0.201 µM
  TGI: 0.57 µM
SK-MEL-5 melanoma
  GI50: 0.747 µM
  TGI: 1.98 µM
SNB-19 CNS
  GI50: 0.229 µM
  TGI: 0.943 µM
T-47D breast
  GI50: 0.283 µM
  TGI: 0.772 µM

## Nc1cc2cccc[n+]2c2cc(Cl)ccc12
EKVX NSCLC
  GI50: 34 µM
IGROV1 ovarian
  GI50: 71.6 µM
NCI-H226 lung
  GI50: 13.5 µM
  TGI: 59.5 µM
NCI-H23 lung
  GI50: 13.2 µM
  TGI: 53.6 µM
SK-MEL-5 melanoma
  GI50: 10.4 µM
  TGI: 23.2 µM
SNB-19 CNS
  GI50: 9.23 µM
  TGI: 55.5 µM
T-47D breast
  GI50: 6.83 µM

## COc1cc(C2c3cc4c(cc3[C@@H](Nc3ccc(C#N)cc3)C3COC(=O)[C@H]23)OCO4)cc(OC)c1O (stereo partly drawn)
EKVX NSCLC
  GI50: 2.21 µM and 3.71 µM
  TGI: 50 µM and 12.8 µM and > 100 µM
HOP-18 NSCLC
  TGI: 39.3 µM
IGROV1 ovarian
  GI50: 1.76 µM
  TGI: 31.1 µM and 8.65 µM
NCI-H226 lung
  GI50: 0.239 µM and 0.242 µM
  TGI: 3.46 µM and 1.43 µM and 2.06 µM
NCI-H23 lung
  GI50: 0.753 µM and 0.532 µM
  TGI: 2.53 µM and 3.67 µM and 4.36 µM
SK-MEL-5 melanoma
  GI50: 0.911 µM and 0.54 µM
  TGI: 4.68 µM and 2.68 µM and 2.06 µM
SNB-19 CNS
  GI50: 0.314 µM and 0.768 µM
T-47D breast
  GI50: 0.46 µM
XF 498 CNS
  TGI: 22.8 µM

## CC1CCCCc2nc3c(c(=O)n21)CCCC3 (stereo not drawn)
DMS 273 small cell lung
  TGI: > 100 µM
IGROV1 ovarian
  TGI: > 100 µM
LXFL 529 NSCLC
  TGI: > 100 µM
NCI-H226 lung
  TGI: > 100 µM
NCI-H23 lung
  TGI: > 100 µM
RXF-631 renal
  TGI: > 100 µM
SNB-19 CNS
  TGI: > 100 µM
XF 498 CNS
  TGI: > 100 µM

## O=C(c1ccc(F)cc1)c1cccc(C(=O)c2ccc(F)cc2)n1
DMS 273 small cell lung
  TGI: > 100 µM
EKVX NSCLC
  TGI: > 100 µM
HOP-18 NSCLC
  TGI: > 100 µM
IGROV1 ovarian
  TGI: 79.3 µM
LXFL 529 NSCLC
  TGI: > 100 µM
NCI-H226 lung
  TGI: > 78 µM
NCI-H23 lung
  TGI: 55.7 µM
SK-MEL-5 melanoma
  TGI: > 79.2 µM
SNB-19 CNS
  TGI: 54 µM
T-47D breast
  TGI: > 100 µM
XF 498 CNS
  TGI: > 59.7 µM

## CC(C)(C)C[C@H]1NC(C(=O)NCC[C@H](O)CO)[C@H](c2cccc(Cl)c2)[C@@]12C(=O)Nc1cc(Cl)c(F)cc12 (stereo partly drawn)
EKVX NSCLC
  GI50: 13.3 µM
  TGI: 29.1 µM
IGROV1 ovarian
  GI50: 4.08 µM
  TGI: 21.1 µM
NCI-H226 lung
  GI50: 2.46 µM
  TGI: 14.1 µM
NCI-H23 lung
  GI50: 18.7 µM
  TGI: 41.6 µM
SK-MEL-5 melanoma
  GI50: 6.73 µM
  TGI: 20 µM
SNB-19 CNS
  GI50: 21.1 µM
  TGI: 59.8 µM
T-47D breast
  GI50: 16.7 µM
  TGI: 37.7 µM

## N#Cc1cnc2cc(OC[C@H](O)CO)c(NC(=O)CC3CSSC3)cc2c1Nc1ccc(OCc2cccc(F)c2)c(Cl)c1
EKVX NSCLC
  GI50: 0.696 µM
  TGI: 1.67 µM
IGROV1 ovarian
  GI50: 0.446 µM
  TGI: 1.39 µM
NCI-H226 lung
  GI50: 0.335 µM
  TGI: 1.49 µM
NCI-H23 lung
  GI50: 0.772 µM
  TGI: 1.7 µM
SK-MEL-5 melanoma
  GI50: 0.841 µM
  TGI: 1.59 µM
SNB-19 CNS
  GI50: 0.447 µM
  TGI: 1.43 µM
T-47D breast
  GI50: 0.575 µM
  TGI: 1.47 µM

## NC(=S)N/N=C(/CC(=O)c1ccccc1)C(=O)Nc1ccc(Cl)c(Cl)c1
DMS 273 small cell lung
  TGI: > 100 µM
EKVX NSCLC
  TGI: > 100 µM
HOP-18 NSCLC
  TGI: > 100 µM
IGROV1 ovarian
  TGI: > 100 µM
LXFL 529 NSCLC
  TGI: > 100 µM
NCI-H226 lung
  TGI: > 100 µM
NCI-H23 lung
  TGI: > 100 µM
SK-MEL-5 melanoma
  TGI: > 100 µM
SNB-19 CNS
  TGI: > 100 µM

## CC(C)(C)OC(=O)C#CC[C@H]1CCCC1/C=C/C(O)=C1/C(=O)NC(CCCNC(=O)OC(C)(C)C)C1=O (stereo partly drawn)
DMS 273 small cell lung
  TGI: 65.9 µM
EKVX NSCLC
  TGI: > 100 µM
HOP-18 NSCLC
  TGI: > 100 µM
IGROV1 ovarian
  TGI: > 100 µM
LXFL 529 NSCLC
  TGI: 53.8 µM
NCI-H226 lung
  TGI: > 100 µM
NCI-H23 lung
  TGI: 78.3 µM
RXF-631 renal
  TGI: 44.9 µM
SK-MEL-5 melanoma
  TGI: > 100 µM
SNB-19 CNS
  TGI: 88.5 µM

## COC(=O)CCC1CCc2c(OC)ccc(O)c2C1=O (stereo not drawn)
DMS 273 small cell lung
  TGI: > 100 µM
EKVX NSCLC
  TGI: > 100 µM
IGROV1 ovarian
  TGI: > 100 µM
LXFL 529 NSCLC
  TGI: > 100 µM
NCI-H226 lung
  TGI: 84.1 µM
NCI-H23 lung
  TGI: > 100 µM
RXF-631 renal
  TGI: > 100 µM
SK-MEL-5 melanoma
  TGI: > 100 µM
SNB-19 CNS
  TGI: > 100 µM

## O=C(CC(=O)CC(O)(C(F)(F)F)C(F)(F)F)CC(O)(C(F)(F)F)C(F)(F)F
EKVX NSCLC
  TGI: > 10 µM
IGROV1 ovarian
  TGI: > 10 µM
NCI-H226 lung
  TGI: > 10 µM
NCI-H23 lung
  TGI: > 10 µM
SK-MEL-5 melanoma
  TGI: > 10 µM
SNB-19 CNS
  TGI: > 10 µM
T-47D breast
  TGI: > 10 µM

## Cc1c(C(=O)/C=C/c2csc3ccccc23)[n+](=O)c2ccccc2n1[O-]
EKVX NSCLC
  GI50: 1.32 µM
  TGI: 3.64 µM
IGROV1 ovarian
  GI50: 1.34 µM
  TGI: 3.04 µM
NCI-H226 lung
  GI50: 1.82 µM
  TGI: 4.94 µM
NCI-H23 lung
  GI50: 1.61 µM
  TGI: 3.49 µM
SK-MEL-5 melanoma
  GI50: 1.59 µM
  TGI: 2.94 µM
SNB-19 CNS
  GI50: 2.08 µM
  TGI: 4.77 µM
T-47D breast
  GI50: 1.92 µM
  TGI: 5.81 µM

## Cc1ccc(C(=O)O/N=C2/CCC/C2=C\c2ccccc2)cc1
DMS 273 small cell lung
  TGI: > 100 µM
EKVX NSCLC
  TGI: > 100 µM
HOP-18 NSCLC
  TGI: > 100 µM
IGROV1 ovarian
  TGI: > 100 µM
LXFL 529 NSCLC
  TGI: > 100 µM
NCI-H226 lung
  TGI: > 100 µM
NCI-H23 lung
  TGI: > 100 µM
SK-MEL-5 melanoma
  TGI: > 100 µM

## CCCN=Cc1cc(Cc2ccc(O)c(C=NCCC)c2)ccc1O
EKVX NSCLC
  TGI: 26.4 µM
IGROV1 ovarian
  TGI: 37.2 µM
NCI-H226 lung
  TGI: 51.2 µM
NCI-H23 lung
  TGI: 26.2 µM
SK-MEL-5 melanoma
  TGI: 17.2 µM
SNB-19 CNS
  TGI: 12.2 µM
T-47D breast
  TGI: 6.33 µM
